{"source": "patent EP1561465A2", "about": "“Methods of use of fluoroquinolone compounds against bacteria” (LG Life Sciences, Ltd., priority 1999, dated 2001)", "key": {"[1]": {"tested_on": "Moraxella catarrhalis", "assay": "MIC by NCCLS reference broth microdilution, 450 respiratory tract pathogens", "type": "cell-based"}, "[2]": {"tested_on": "Haemophilus influenzae", "assay": "MIC by NCCLS reference broth microdilution, 450 respiratory tract pathogens", "type": "cell-based", "details": "Haemophilus influenzae; for MIC90: read-out: MIC90"}, "[3]": {"tested_on": "Staphylococcus aureus", "assay": "MIC by NCCLS reference broth microdilution, 450 respiratory tract pathogens", "type": "cell-based"}, "[4]": {"tested_on": "Klebsiella pneumoniae", "assay": "MIC by NCCLS reference broth microdilution, 450 respiratory tract pathogens", "type": "cell-based", "details": "for MIC50 / MIC90: Klebsiella pneumoniae"}, "[5]": {"tested_on": "Enterococcus faecalis", "assay": "MIC by agar macrodilution (NCCLS), 373 Gram positive isolates, Athens 1998", "type": "cell-based", "details": "for MIC50: read-out: MIC50"}, "[6]": {"tested_on": "Campylobacter jejuni", "assay": "MIC by agar dilution (NCCLS M7-A4), 288 enteropathogenic isolates, gemifloxacin and 15 other antimicrobials", "details": "for MIC: Campylobacter jejuni"}, "[7]": {"tested_on": "Streptococcus pneumoniae", "assay": "MIC by agar dilution (NCCLS), 411 isolates Buenos Aires 1998-99", "type": "cell-based", "details": "S. pneumoniae"}, "[8]": {"details": "Haemophilus influenzae (n = 100)"}, "[9]": {"details": "β-lactamase positive and erythromycin resistant (n = 10)"}, "[10]": {"details": "extended spectrum β-lactamase negative (n = 30)"}, "[11]": {"details": "extended spectrum β-lactamase positive (n = 20)"}, "[12]": {"details": "number of isolates at MIC […], n = 81"}, "[13]": {"details": "number of isolates with MIC […], 14 isolates"}}, "note": "Where two headings read alike, the source gives them in different places."}
{"compound": "COc1c(N2C[C@@H]3CCCN[C@@H]3C2)c(F)cc2c(=O)c(C(=O)O)cn(C3CC3)c12", "note": "[Moxifloxacin, moxifloxacin]", "values": [{"measurement": "MIC", "setting": "[1]; Moraxella catarrhalis (n = 50)", "value": "0.00375 to 0.12", "unit": "µg/mL"}, {"measurement": "MIC50", "setting": "[1]; Moraxella catarrhalis (n = 50)", "value": 0.06, "unit": "µg/mL"}, {"measurement": "MIC90", "setting": "[1]; Moraxella catarrhalis (n = 50)", "value": 0.06, "unit": "µg/mL"}, {"measurement": "MIC", "setting": "[1]; β-lactamase negative (n = 13)", "value": "0.00375 to 0.12", "unit": "µg/mL"}, {"measurement": "MIC50", "setting": "[1]; β-lactamase negative (n = 13)", "value": 0.015, "unit": "µg/mL"}, {"measurement": "MIC90", "setting": "[1]; β-lactamase negative (n = 13)", "value": 0.06, "unit": "µg/mL"}, {"measurement": "MIC", "setting": "[1]; β-lactamase positive (n = 37)", "value": "0.00375 to 0.12", "unit": "µg/mL"}, {"measurement": "MIC50", "setting": "[1]; β-lactamase positive (n = 37)", "value": 0.03, "unit": "µg/mL"}, {"measurement": "MIC90", "setting": "[1]; β-lactamase positive (n = 37)", "value": 0.06, "unit": "µg/mL"}, {"measurement": "MIC", "setting": "[2]; [8]", "value": "0.0075 to 0.12", "unit": "µg/mL"}, {"measurement": "MIC50", "setting": "[2]; [8]", "value": 0.03, "unit": "µg/mL"}, {"measurement": "MIC90", "setting": "[2]; [8]", "value": 0.06, "unit": "µg/mL"}, {"measurement": "MIC", "setting": "[2]; β-lactamase negative (n = 80)", "value": "0.0075 to 0.06", "unit": "µg/mL"}, {"measurement": "MIC50", "setting": "[2]; β-lactamase negative (n = 80)", "value": 0.03, "unit": "µg/mL"}, {"measurement": "MIC90", "setting": "[2]; β-lactamase negative (n = 80)", "value": 0.06, "unit": "µg/mL"}, {"measurement": "MIC", "setting": "[2]; β-lactamase positive (n = 20)", "value": "0.0075 to 0.06", "unit": "µg/mL"}, {"measurement": "MIC50", "setting": "[2]; β-lactamase positive (n = 20)", "value": 0.015, "unit": "µg/mL"}, {"measurement": "MIC90", "setting": "[2]; β-lactamase positive (n = 20)", "value": 0.015, "unit": "µg/mL"}, {"measurement": "MIC", "setting": "[3]; Staphylococcus aureus (n = 50)", "value": "0.015 to 0.5", "unit": "µg/mL"}, {"measurement": "MIC50", "setting": "[3]; Staphylococcus aureus (n = 50)", "value": 0.25, "unit": "µg/mL"}, {"measurement": "MIC90", "setting": "[3]; Staphylococcus aureus (n = 50)", "value": 0.5, "unit": "µg/mL"}, {"measurement": "MIC", "setting": "[3]; β-lactamase negative (n = 20)", "value": "0.06 to 0.5", "unit": "µg/mL"}, {"measurement": "MIC50", "setting": "[3]; β-lactamase negative (n = 20)", "value": 0.25, "unit": "µg/mL"}, {"measurement": "MIC90", "setting": "[3]; β-lactamase negative (n = 20)", "value": 0.5, "unit": "µg/mL"}, {"measurement": "MIC", "setting": "[3]; β-lactamase positive (n = 20)", "value": "0.12 to 0.5", "unit": "µg/mL"}, {"measurement": "MIC50", "setting": "[3]; β-lactamase positive (n = 20)", "value": 0.25, "unit": "µg/mL"}, {"measurement": "MIC90", "setting": "[3]; β-lactamase positive (n = 20)", "value": 0.5, "unit": "µg/mL"}, {"measurement": "MIC", "setting": "[3]; [9]", "value": "0.12 to 0.5", "unit": "µg/mL"}, {"measurement": "MIC50", "setting": "[3]; [9]", "value": 0.25, "unit": "µg/mL"}, {"measurement": "MIC90", "setting": "[3]; [9]", "value": 0.5, "unit": "µg/mL"}, {"measurement": "MIC Range", "setting": "[4]; Klebsiella pneumoniae (n = 50)", "value": "0.015 to 1", "unit": "µg/mL"}, {"measurement": "MIC50", "setting": "[4]; Klebsiella pneumoniae (n = 50)", "value": 0.06, "unit": "µg/mL"}, {"measurement": "MIC90", "setting": "[4]; Klebsiella pneumoniae (n = 50)", "value": 0.5, "unit": "µg/mL"}, {"measurement": "MIC50", "setting": "[4]; [10]", "value": 0.06, "unit": "µg/mL"}, {"measurement": "MIC90", "setting": "[4]; [10]", "value": 0.25, "unit": "µg/mL"}, {"measurement": "MIC50", "setting": "[4]; [11]", "value": 0.5, "unit": "µg/mL"}, {"measurement": "MIC90", "setting": "[4]; [11]", "value": 1, "unit": "µg/mL"}, {"measurement": "MIC Range", "setting": "[4]; [10]", "value": "0.015 to 0.5", "unit": "µg/mL"}, {"measurement": "MIC Range", "setting": "[4]; [11]", "value": "0.06 to 1", "unit": "µg/mL"}]}
{"compound": "CC[C@H]1OC(=O)[C@H](C)[C@@H](O[C@H]2C[C@@](C)(OC)[C@@H](O)[C@H](C)O2)[C@H](C)[C@@H](O[C@@H]2O[C@H](C)C[C@H](N(C)C)[C@H]2O)[C@](C)(O)C[C@@H](C)C(=O)[C@H](C)[C@@H](O)[C@]1(C)O", "note": "[erythromycin]", "values": [{"measurement": "MIC50", "setting": "[5]; Enterococcus faecalis, continuation of the preceding table (title not shown), 14 isolates", "value": "≥ 32", "unit": "µg/mL"}, {"measurement": "MIC50", "setting": "[5]; Enterococcus faecalis, n = 81 isolates", "value": 8, "unit": "µg/mL"}, {"measurement": "MIC90", "setting": "[5]; Enterococcus faecalis, n = 81 isolates, read-out: MIC90", "value": "≥ 32", "unit": "µg/mL"}, {"measurement": "MIC90", "setting": "[5]; continuation of the preceding table (title not shown), 14 isolates", "value": "≥32", "unit": "µg/mL"}, {"measurement": "MIC distribution (µg/ml) 0.03", "setting": "[5]; number of isolates at MIC 0.03 µg/ml, n = 81", "value": 0}, {"measurement": "MIC distribution (µg/ml) 0.06", "setting": "[5]; number of isolates at MIC 0.06 µg/ml, n = 81", "value": 0}, {"measurement": "MIC distribution (µg/ml) 0.5", "setting": "[5]; number of isolates at MIC 0.5 µg/ml, n = 81", "value": 1}, {"measurement": "MIC distribution (µg/ml) 1", "setting": "[5]; number of isolates at MIC 1 µg/ml, n = 81", "value": 2}, {"measurement": "MIC distribution (µg/ml) 2", "setting": "[5]; number of isolates at MIC 2 µg/ml, n = 81", "value": 12}, {"measurement": "MIC distribution (µg/ml) 4", "setting": "[5]; number of isolates at MIC 4 µg/ml, n = 81", "value": 16}, {"measurement": "MIC distribution (µg/ml) 8", "setting": "[5]; number of isolates at MIC 8 µg/ml, n = 81", "value": 4}, {"measurement": "MIC distribution (µg/ml) 16", "setting": "[5]; number of isolates at MIC 16 µg/ml, n = 81", "value": 1}, {"measurement": "MIC distribution (µg/ml) 0.125", "setting": "[5]; [12]", "value": 1}, {"measurement": "MIC distribution (µg/ml) 0.25", "setting": "[5]; [12]", "value": 1}, {"measurement": "MIC distribution (µg/ml) ≤0.015", "setting": "[5]; number of isolates at MIC ≤[…], n = 81", "value": 0}, {"measurement": "MIC distribution (µg/ml) ≥32", "setting": "[5]; number of isolates at MIC ≥32 µg/ml, n = 81", "value": 39}, {"measurement": "MIC distribution (µg/ml) 0.03", "setting": "[5]; number of isolates with MIC […] µg/ml, 14 isolates", "value": 0}, {"measurement": "MIC distribution (µg/ml) 0.06", "setting": "[5]; number of isolates with MIC […] µg/ml, 14 isolates", "value": 0}, {"measurement": "MIC distribution (µg/ml) 0.5", "setting": "[5]; number of isolates with MIC […] µg/ml, 14 isolates", "value": 0}, {"measurement": "MIC distribution (µg/ml) 1", "setting": "[5]; number of isolates with MIC 1 µg/ml, 14 isolates", "value": 0}, {"measurement": "MIC distribution (µg/ml) 2", "setting": "[5]; number of isolates with MIC 2 µg/ml, 14 isolates", "value": 2}, {"measurement": "MIC distribution (µg/ml) 4", "setting": "[5]; number of isolates with MIC 4 µg/ml, 14 isolates", "value": 2}, {"measurement": "MIC distribution (µg/ml) 8", "setting": "[5]; number of isolates with MIC 8 µg/ml, 14 isolates", "value": 1}, {"measurement": "MIC distribution (µg/ml) 16", "setting": "[5]; number of isolates with MIC […] µg/ml, 14 isolates", "value": 0}, {"measurement": "MIC distribution (µg/ml) 0.125", "setting": "[5]; [13]", "value": 0}, {"measurement": "MIC distribution (µg/ml) 0.25", "setting": "[5]; [13]", "value": 0}, {"measurement": "MIC distribution (µg/ml) ≤0.015", "setting": "[5]; number of isolates with MIC ≤[…], 14 isolates", "value": 0}, {"measurement": "MIC distribution (µg/ml) ≥32", "setting": "[5]; number of isolates with MIC ≥[…] µg/ml, 14 isolates", "value": 9}, {"measurement": "isolates inhibited by a concentration ≤0.5 mg/l", "setting": "[6]; C. jejuni", "value": 77, "unit": "%"}, {"measurement": "concentration inhibiting all the other isolates", "setting": "[6]; C. jejuni isolates other than the highly resistant strain", "value": "≤ 4", "unit": "mg/L"}, {"measurement": "MIC", "setting": "[6]", "value": 128, "unit": "mg/L"}, {"measurement": "MIC", "setting": "[6]; read-out: MIC (mg/L) 50%", "value": 0.5, "unit": "mg/L"}, {"measurement": "MIC", "setting": "[6]; read-out: MIC (mg/L) 90%", "value": 1, "unit": "mg/L"}]}
{"compound": "amoxycillin/clavulanate", "values": [{"measurement": "MIC90", "setting": "[7]; Penicillin intermediate (n = 17)", "value": 1, "unit": "µg/mL"}, {"measurement": "MIC90", "setting": "[7]; Penicillin resistant (n = 4)", "value": 1, "unit": "µg/mL"}, {"measurement": "MIC90", "setting": "[7]; Penicillin susceptible (n = 69)", "value": 0.016, "unit": "µg/mL"}]}
